The text below walks through data of article PMC7866009, “Evaluation of Nanotargeted ^111In-Cyclic RGDfK-Liposome in a Human Melanoma Xenotransplantation Model” (International Journal of Molecular Sciences, 2021).

Assay [1] has as its system αVβ3 integrin-mediated adhesion of A375.S2 cells. Briefly: CytoSelect cell adhesion assay of A375.S2 cells on extracellular matrix proteins. To be noted: 100 nM; cells adhere to coated plate at 37 °C (1 h in legend, 90 min in method); crystal violet OD 560 nm; five experiments. The format is cell-based, human. The procedure: Next, we tested the effect of the cyclic RGDfK-liposome on the αVβ3 integrin -mediated cellular adhesion using human malignant melanoma A375.S2 cells on recombinant extracellular matrix proteins.
Figure 1 Evaluating the effect of the cyclic RGDfK-liposome on αVβ3 integrin-mediated cell adhesion. […] A375.S2 cells was pretreated with 100 nM cRGDfV, cRGDfK, cRGDfK-PEG2000-DSPE or the cRGDfK-liposome and allowed to adhere to a coating of fibronectin, collagenI or collagen IV for 1 h at 37 °C before washing and detection of cell adhesion (B) or followed by staining with FITC-labeled mouse anti-human CD51/CD61 monoclonal antibody (C). […] These experiments were performed for five times.
Adhesion assay were performed with CytoSelect TM Cell Adhesion Assay Kit. Principle, A375.S2 cells (1 × 10^6/well) in working solution (serum-free MEM medium, 1mM Mn^2+, and 0.5% bovine serum albumin) were allowed to adhere to extracellular matrix proteins-coated plate for 90 min at 37 °C. Cells were analyzed for binding in the presence or absence of test subjects. Non-adherent cells were removed by a flick wash. The adherent cells were stained with crystal violet and examined the optical density at λmax 560 nm.

The next assay relates to integrin αVβ3. As to conditions: cited from earlier work. The text has this: The arginin-glycine-aspatic acid (RGD) sequence is the cell attachment site of a large number of adhesive extracellular matrix, blood, and cell surface proteins, and nearly half of the over 20 known integrins recognize this sequence in their adhesion protein ligands. The integrin-binding selective activity to only one or a few of the RGD-directed integrins can be designed by cyclizing peptides with selected sequences around the RGD.

The target of assay [2] is αVβ3 integrin (human (endogenous in A375.S2)) (UniProt P06756).
Chain of UniProt P06756 (P06756 31-1048, chain 1 of 2): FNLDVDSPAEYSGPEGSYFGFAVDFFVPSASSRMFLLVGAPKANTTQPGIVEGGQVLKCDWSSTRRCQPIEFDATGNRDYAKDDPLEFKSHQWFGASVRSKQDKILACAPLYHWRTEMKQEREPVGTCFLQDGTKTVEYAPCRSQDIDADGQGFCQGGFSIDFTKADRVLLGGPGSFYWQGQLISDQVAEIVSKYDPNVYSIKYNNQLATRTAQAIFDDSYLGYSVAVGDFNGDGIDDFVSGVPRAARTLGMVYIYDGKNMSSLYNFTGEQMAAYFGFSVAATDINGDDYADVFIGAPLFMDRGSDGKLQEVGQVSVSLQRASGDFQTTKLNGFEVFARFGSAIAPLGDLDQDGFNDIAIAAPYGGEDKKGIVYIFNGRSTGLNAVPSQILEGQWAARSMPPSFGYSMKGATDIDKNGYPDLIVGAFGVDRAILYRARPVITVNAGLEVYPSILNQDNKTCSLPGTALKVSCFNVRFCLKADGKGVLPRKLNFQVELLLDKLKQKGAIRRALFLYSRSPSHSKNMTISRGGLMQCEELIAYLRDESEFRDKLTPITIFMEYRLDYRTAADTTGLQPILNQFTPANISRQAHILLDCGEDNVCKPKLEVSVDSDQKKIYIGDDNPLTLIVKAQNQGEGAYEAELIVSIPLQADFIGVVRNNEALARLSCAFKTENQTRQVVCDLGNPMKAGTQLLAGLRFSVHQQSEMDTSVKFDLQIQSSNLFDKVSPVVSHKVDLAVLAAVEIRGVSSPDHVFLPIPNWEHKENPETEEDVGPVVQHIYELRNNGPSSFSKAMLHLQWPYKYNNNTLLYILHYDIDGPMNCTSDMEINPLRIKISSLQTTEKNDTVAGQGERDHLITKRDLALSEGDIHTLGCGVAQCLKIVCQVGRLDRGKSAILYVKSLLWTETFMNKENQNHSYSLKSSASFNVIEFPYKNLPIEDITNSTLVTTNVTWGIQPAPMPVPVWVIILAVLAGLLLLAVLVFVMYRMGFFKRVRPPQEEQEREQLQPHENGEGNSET
Chain of UniProt P06756 (P05106 27-788, chain 2 of 2, further chain): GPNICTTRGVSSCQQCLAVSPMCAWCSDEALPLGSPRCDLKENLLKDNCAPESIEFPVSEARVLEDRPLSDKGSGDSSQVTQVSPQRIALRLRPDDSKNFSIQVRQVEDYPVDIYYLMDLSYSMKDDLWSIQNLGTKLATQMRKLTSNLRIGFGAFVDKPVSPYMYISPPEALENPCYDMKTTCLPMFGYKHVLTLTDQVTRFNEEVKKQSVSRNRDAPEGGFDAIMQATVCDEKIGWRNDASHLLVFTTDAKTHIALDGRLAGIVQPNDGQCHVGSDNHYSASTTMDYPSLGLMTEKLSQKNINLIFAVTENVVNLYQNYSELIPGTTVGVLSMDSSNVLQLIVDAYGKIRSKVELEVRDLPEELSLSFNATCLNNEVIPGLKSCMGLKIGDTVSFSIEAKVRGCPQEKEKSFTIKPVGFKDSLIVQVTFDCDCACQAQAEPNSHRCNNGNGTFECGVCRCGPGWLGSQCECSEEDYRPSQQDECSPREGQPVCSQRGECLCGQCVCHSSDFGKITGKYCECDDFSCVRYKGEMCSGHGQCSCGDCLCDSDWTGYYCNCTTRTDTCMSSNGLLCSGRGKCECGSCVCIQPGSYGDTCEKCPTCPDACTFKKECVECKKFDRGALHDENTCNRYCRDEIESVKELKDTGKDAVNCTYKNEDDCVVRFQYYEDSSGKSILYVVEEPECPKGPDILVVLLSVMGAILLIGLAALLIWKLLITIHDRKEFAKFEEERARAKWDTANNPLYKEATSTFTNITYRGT
For assay [3] the target is unchanged. The source holds these as a separate data set.

Non-standard residues stand in square brackets, D forms with d.

Regarding `N=C(N)NCCC[C@@H]1NC(=O)[C@H](CCCCN)NC(=O)[C@@H](Cc2ccccc2)NC(=O)[C@H](CC(=O)O)NC(=O)CNC1=O` [cRGDfK], the “A375.S2 cell adhesion to fibronectin, collagen I, and collagen IV” value in assay [1] is “markedly reduced”. In the assay on integrin αVβ3, the “binding affinity for integrin αVβ3” value is reported as “high binding affinity”.
For `CC(C)[C@@H]1NC(=O)[C@@H](Cc2ccccc2)NC(=O)[C@H](CC(=O)O)NC(=O)CNC(=O)[C@H](CCCNC(=N)N)NC1=O` [cRGDfV], the “A375.S2 cell adhesion to fibronectin, collagen I, and collagen IV” value in assay [1] is “markedly reduced”. For the same molecule, the “binding affinity for integrin αVβ3” value in the assay with integrin αVβ3 was “high binding affinity”.
cyclo(RGD[dF]K) (also: conjugated via NHS-PEG2000-DSPE, inserted into PEGylated liposome) [cyclic RGDfK-liposome]: in assay [2], the tumor-to-blood ratio of the 111In-labeled cyclic RGDfK-liposome, mice without a metastatic growth of human melanoma cells (111In-liposome without peptide: 1) was determined as 4.8 and the uptake of the 111In-labeled cyclic RGDfK-liposome in tumor, mice without a metastatic growth of human melanoma cells (111In-liposome without peptide: 2.2) amounted to 5.3 %ID/g. Further, in assay [3], the tumor-to-blood ratio of the 111In-labeled cyclic RGDfK-liposome, mice with a metastatic growth of human melanoma cells (111In-liposome without peptide: 1.3) worked out at 5.6 and the uptake of the 111In-labeled cyclic RGDfK-liposome in tumor (jejunal lymph node), mice with a metastatic growth of human melanoma cells (111In-liposome without peptide: 2.9) was 6.2 %ID/g.
